Converted amounts (≈) assume the structure as drawn.
Legend:
C. dubliniensis = assay: Broth microdilution MIC/MFC, clinical isolate; format: cell-based; details: Candida dubliniensis, C. dubliniensis clinical strain; for MFC: read-out: MFC; for MIC: read-out: MIC
Text: (§1) In the study of antifungal activity of the compounds 3a–3j, 15 clinical strains of different species of yeasts from Candida species, namely C. albicans, C. dubliniensis C. famata, C. inconspicua, C. krusei, C. tropicalis, C. glabrata, C. lambica, C. kefyr, C. lusitaniae, C. parapsilosis, C. guilliermondii, C. lusitaniae, C. pulcherrima and C. sake were also used. These fungi were isolated by the author (from Department of Pharmaceutical Microbiology of Medical University in Lublin, Poland) from different clinical materials, e.g., from upper respiratory tract of hospitalized patients including cancer patients (i.e., with non-small cell lung cancer or hematological malignancies). Some patients were after pre-operative or post-operative chemotherapy (treated with etoposide or cis-platin given in doses according to the standard procedures), patients with chronic hepatitis C (undergoing peginterferon and ribavirin therapy or without antiviral therapy), patients with diabetes, elderly people, aged of 65 years old or older, staying in close population, such as a care centre and people staying outside the home care. The Ethical Committee of the Medical University of Lublin approved the study protocol (No. KE-0254/75/2011). The isolates were identified by standard diagnostic methods—biochemical microtest, e.g., API 20C AUX, ID 32C, API Candida (bioMérieux) on the basis of assimilation of various substrates. All the used microbial cultures were first subcultured on nutrient agar or Sabouraud agar for bacteria and fungi, respectively. The RPMI 1640 with MOPS (for fungi) were inoculated with the suspensions of fungal species. Microbial suspensions were prepared in sterile saline (0.85% NaCl) with an optical density of 0.5 McFarland standard scale (Wiegand et al. [2008]). Samples containing examined compounds were dissolved in dimethyl sulfoxide (DMSO). Furthermore, fungal suspensions were put onto Petri dishes with solid media containing 2 mg/ml of the tested compounds followed incubation under appropriate conditions. The inhibition of microbial growth was judged by comparison with a control culture prepared without any sample tested. Nystatin (Sigma) was used as a reference antifungal compound. Subsequently MIC minimal inhibitory concentration (MIC) of the compounds was examined by the microdilution broth method, using their two-fold dilutions in RPMI 1640 broth with MOPS prepared in 96-well polystyrene plates. Final concentrations of the compounds ranged from 1000 to 0.0038 µg/ml. Microbial suspensions were prepared in sterile saline with an optical density of 0.5 McFarland standard. Next fungal suspension was added per each well containing broth and various concentrations of the examined compounds. After incubation, the MIC was assessed spectrophotometric as the lowest concentration of the samples showing complete fungal growth inhibition. Appropriate DMSO, growth and sterile controls were carried out. The medium with no tested substances was used as a control (Wiegand et al. [2008]). The minimal fungicidal concentration (MFC) are defined as the lowest concentration of the compounds that is required to kill a particular fungal species. MFC was determined by removing the culture using for MIC determinations from each well and spotting onto appropriate agar medium. The plates were incubated. The lowest compounds concentration with no visible growth observed was assessed as a fungicidal concentration. All the experiments were repeated three times and representative data are presented.
(§2) The MFC/MIC ratios were calculated in order to determine fungicidal (MFC/MIC ≤ 4) or fungistatic (MFC/MIC > 4) effect of the tested compounds (O’Donnell et al. [2010]).

C. sake = assay: Broth microdilution MIC/MFC, clinical isolate; format: cell-based; details: Fermentozyma sake, C. sake clinical strain; for MFC: read-out: MFC; for MIC: read-out: MIC
Text: as §1, §2

C. famata = assay: Broth microdilution MIC/MFC, clinical isolate; format: cell-based; details: Debaryomyces hansenii, C. famata clinical strain; for MFC: read-out: MFC; for MIC: read-out: MIC
Text: as §1, §2

C. albicans = assay: Broth microdilution MIC/MFC, clinical isolate; format: cell-based; details: Candida albicans, C. albicans clinical strain; for MFC: read-out: MFC; for MIC: read-out: MIC
Text: as §1, §2

C. guilliermondii = assay: Broth microdilution MIC/MFC, clinical isolate; format: cell-based; details: Meyerozyma guilliermondii, C. guilliermondii clinical strain; for MFC: read-out: MFC; for MIC: read-out: MIC
Text: as §1, §2

C. lusitaniae = assay: Broth microdilution MIC/MFC, clinical isolate; format: cell-based; details: Clavispora lusitaniae, C. lusitaniae clinical strain; for MFC: read-out: MFC; for MIC: read-out: MIC
Text: as §1, §2

C. pulcherrima = assay: Broth microdilution MIC/MFC, clinical isolate; format: cell-based; details: C. pulcherrima clinical strain; for MFC: read-out: MFC; for MIC: read-out: MIC
Text: as §1, §2

C. krusei = assay: Broth microdilution MIC/MFC, clinical isolate; format: cell-based; details: Pichia kudriavzevii, C. krusei clinical strain; for MFC: read-out: MFC; for MIC: read-out: MIC
Text: as §1, §2

[1] = tested on: Toxoplasma gondii RH strain; assay: [3H]-uracil incorporation assay in VERO host cells; details: Toxoplasma gondii, Vero; for IC50: read-out: IC50 anti-Tg; for activity at 0.98 µg/mL / activity at 1.95 µg/mL / activity at 3.91 µg/mL / activity at 7.81 µg/mL / activity at 15.63 µg/mL / activity at 20 µg/mL / activity at 25 µg/mL / activity at 31.25 µg/mL: read-out: Proliferation of Toxoplasma gondii RH strain ± SD
[2] = tested on: maximal electroshock seizures; assay: Maximal electroshock seizure (MES) test; format: in vivo, mouse; details: mice; for responders at 100 mg/kg: 100 mg/kg ip, read-out: X/Y number of mice protected (X) per number of mice tested (Y) (converted)
Experimental: For in vivo tests that assessed anticonvulsant properties of the test compounds 3a–3j adult male Albino Swiss (CD-1) mice weighing between 18 and 22 g were used. The animals were housed in groups of ten mice per cage at room temperature of 22 ± 2 °C, under light/dark (12:12) cycle. The animals had free access to food and tap water before the experiments. The ambient temperature of the experimental room and humidity (50 ± 10%) were kept consistent throughout all the tests. For behavioral experiments the animals were selected randomly. Each experimental group consisted of 4–8 animals/dose. The experiments were performed between 9 AM and 2 PM. Immediately after the in vivo assay the animals were euthanized by cervical dislocation. All procedures were approved by the Local Ethics Committee of the Jagiellonian University in Krakow (34/2018, 1.02.2018)) and the treatment of animals was in full accordance with ethical standards laid down in respective Polish and EU regulations (Directive No. 86/609/EEC). For in vivo tests the compounds 3a–3j were prepared in 1% Tween 80 solution (POCH, Poland) and they were administered by the intraperitoneal route. Control mice received 1% Tween 80. Pentylenetetrazole (PTZ), pilocarpine hydrochloride and scopolamine butylbromide were provided by Sigma Aldrich (Poland). For the tests they were prepared in 0.9% saline (Polfa Kutno, Poland). PTZ and pilocarpine were administered 60 min after the test compound or vehicle. To assess anticonvulsant properties of the test compounds anticonvulsant screening was conducted. Four assays were used: PTZ, maximal electroshock seizure (MES), 6-Hz and pilocarpine tests. In these assays the dose of 100 mg/kg was chosen as a starting dose. If it turned out to be effective, a lower dose (30 mg/kg) was also tested. MES test was performed according to a method previously described (Sałat et al. [2005]). In this test vehicle-treated mice and drug-treated mice received a stimulus of 25 mA delivered by an electroshock generator (Hugo Sachs rodent shocker, Germany) to induce maximal seizures (tonic extension) of hind limbs. Electroconvulsions were produced with the use of auricular electrodes and the stimulus duration was 0.2 s. Tonic extension of the hind limbs was regarded as the endpoint for this procedure.

SMILES	MIC (C. dubliniensis) [µg/mL]	MIC (C. sake) [µg/mL]	MIC (C. famata) [µg/mL]	MIC (C. albicans) [µg/mL]	MIC (C. guilliermondii) [µg/mL]	MIC (C. lusitaniae) [µg/mL]	MIC (C. pulcherrima) [µg/mL]	MIC (C. krusei) [µg/mL]	MFC (C. dubliniensis) [µg/mL]	MFC (C. sake) [µg/mL]	MFC (C. famata) [µg/mL]	MFC (C. albicans) [µg/mL]	MFC (C. guilliermondii) [µg/mL]	MFC (C. lusitaniae) [µg/mL]	MFC (C. pulcherrima) [µg/mL]	MFC (C. krusei) [µg/mL]	activity at 0.98 µg/mL [1] [%]	activity at 1.95 µg/mL [1] [%]	activity at 3.91 µg/mL [1] [%]	responders at 100 mg/kg ([2]; Mus musculus, MES test) [%]	other results
N#Cc1ccc(-c2csc(N/N=C/C3CC3)n2)cc1 [Compound 3h, (E)-4-(2-(2-(Cyclopropylmethylene)hydrazinyl)thiazol-4-yl)benzonitrile]	0.48 (≈ 1.79 µM)	0.98 (≈ 3.65 µM)	1.95 (≈ 7.27 µM)	0.98 (≈ 3.65 µM)	0.48 (≈ 1.79 µM)	0.24 (≈ 0.894 µM)	62.5 (≈ 233 µM)	0.48 (≈ 1.79 µM)	0.98 (≈ 3.65 µM)	125 (≈ 466 µM)	3.91 (≈ 14.6 µM)	15.6 (≈ 58.2 µM)	3.91 (≈ 14.6 µM)	0.98 (≈ 3.65 µM)	> 1000	7.81 (≈ 29.1 µM)	86.1	83.3 ± 3.9	79.6 ± 1.15	50	IC50 [1]: 30.1 µg/mL (≈ 112 µM); activity at 7.81 µg/mL [1]: 75.5 ± 4.89%; activity at 15.63 µg/mL [1]: 65 ± 3.28%; activity at 20 µg/mL [1]: 56.6 ± 1%; activity at 25 µg/mL [1]: 53.9 ± 6.64%; activity at 31.25 µg/mL [1]: 43.81 ± 0.06%
O=[N+]([O-])c1ccc(-c2csc(N/N=C/C3CC3)n2)cc1 [Compound 3j, (E)-2-(2-(Cyclopropylmethylene)hydrazinyl)-4-(4-nitrophenyl)thiazole]	0.24 (≈ 0.832 µM)	0.24 (≈ 0.832 µM)	1.95 (≈ 6.76 µM)	0.24 (≈ 0.832 µM)	0.24 (≈ 0.832 µM)	0.48 (≈ 1.66 µM)	7.81 (≈ 27.1 µM)	0.06 (≈ 0.208 µM)	0.48 (≈ 1.66 µM)	0.98 (≈ 3.4 µM)	31.2 (≈ 108 µM)	0.48 (≈ 1.66 µM)	0.98 (≈ 3.4 µM)	0.98 (≈ 3.4 µM)	> 1000	0.12 (≈ 0.416 µM)	91 ± 2.47	94.44 ± 0.34	97.1 ± 4.63	50	IC50 [1]: 21.8 µg/mL (≈ 75.5 µM); activity at 7.81 µg/mL [1]: 96.7 ± 3.29%; activity at 15.63 µg/mL [1]: 60 ± 7.86%; activity at 20 µg/mL [1]: 58.8 ± 1.67%; activity at 25 µg/mL [1]: 40.3 ± 1.53%; activity at 31.25 µg/mL [1]: 35.1 ± 424%
Cc1ccc(-c2csc(N/N=C/C3CC3)n2)cc1 [Compound 3d, (E)-2-(2-(Cyclopropylmethylene)hydrazinyl)-4-p-tolylthiazole]	0.06 (≈ 0.233 µM)	0.12 (≈ 0.466 µM)	0.48 (≈ 1.87 µM)	0.12 (≈ 0.466 µM)	0.48 (≈ 1.87 µM)	0.12 (≈ 0.466 µM)	15.6 (≈ 60.7 µM)	0.24 (≈ 0.933 µM)	0.12 (≈ 0.466 µM)	0.48 (≈ 1.87 µM)	3.91 (≈ 15.2 µM)	0.24 (≈ 0.933 µM)	3.91 (≈ 15.2 µM)	0.48 (≈ 1.87 µM)	> 1000	0.98 (≈ 3.81 µM)	88.7 ± 2.63	100 ± 4.54	93.4 ± 5.18	37.5	activity at 7.81 µg/mL [1]: 90.4 ± 3.29%; activity at 15.63 µg/mL [1]: 84.41 ± 0.08%

Now from value to compound, other results behind:

MIC (C. dubliniensis) [µg/mL]	MIC (C. sake) [µg/mL]	MIC (C. famata) [µg/mL]	MIC (C. albicans) [µg/mL]	MIC (C. guilliermondii) [µg/mL]	MIC (C. lusitaniae) [µg/mL]	MIC (C. pulcherrima) [µg/mL]	MIC (C. krusei) [µg/mL]	SMILES	MFC (C. dubliniensis) [µg/mL]	MFC (C. sake) [µg/mL]	MFC (C. famata) [µg/mL]	MFC (C. albicans) [µg/mL]	MFC (C. guilliermondii) [µg/mL]	MFC (C. lusitaniae) [µg/mL]	MFC (C. pulcherrima) [µg/mL]	MFC (C. krusei) [µg/mL]	activity at 0.98 µg/mL [1] [%]	activity at 1.95 µg/mL [1] [%]	activity at 3.91 µg/mL [1] [%]	responders at 100 mg/kg ([2]; Mus musculus, MES test) [%]	other results
0.015 (≈ 0.0528 µM)	0.48 (≈ 1.69 µM)	1.95 (≈ 6.86 µM)	0.48 (≈ 1.69 µM)	0.98 (≈ 3.45 µM)	0.48 (≈ 1.69 µM)	62.5 (≈ 220 µM)	0.98 (≈ 3.45 µM)	[N-]=[N+]=Nc1ccc(-c2csc(N/N=C/C3CC3)n2)cc1 [Compound 3i, (E)-4-(4-Azidophenyl)-2-(2-(cyclopropylmethylene)hydrazinyl)thiazole]	0.12 (≈ 0.422 µM)	7.81 (≈ 27.5 µM)	7.81 (≈ 27.5 µM)	15.6 (≈ 54.9 µM)	15.6 (≈ 54.9 µM)	1.95 (≈ 6.86 µM)	> 1000	7.81 (≈ 27.5 µM)	95.3 ± 10.6	93.3 ± 4.67	105 ± 2.24	37.5	activity at 7.81 µg/mL [1]: 92.2 ± 3.71%; activity at 15.63 µg/mL [1]: 98.8 ± 4.29%
0.03 (≈ 0.108 µM)	0.12 (≈ 0.432 µM)	0.12 (≈ 0.432 µM)	0.06 (≈ 0.216 µM)	0.24 (≈ 0.864 µM)	0.12 (≈ 0.432 µM)	125 (≈ 450 µM)	0.12 (≈ 0.432 µM)	Clc1ccc(-c2csc(N/N=C/C3CC3)n2)cc1 [Compound 3c, (E)-4-(4-Chlorophenyl)-2-(2-(cyclopropylmethylene)hydrazinyl)thiazole]	0.06 (≈ 0.216 µM)	0.98 (≈ 3.53 µM)	0.98 (≈ 3.53 µM)	0.98 (≈ 3.53 µM)	0.98 (≈ 3.53 µM)	0.12 (≈ 0.432 µM)	> 1000	0.48 (≈ 1.73 µM)	106.78 ± 0.02	108 ± 4.34	114 ± 6.65	75	animals with reduced seizures ([2]; MES test, 100 mg/kg): 75%; responders at 30 mg/kg ([2]; Mus musculus, MES test, 30 mg/kg ip, read-out: X/Y number of mice protected (X) per number of mice tested (Y)): 0%; anticonvulsant activity in MES test ([2]; 30 mg/kg): not active
